Assay results taken from US11286242B2 (priority 2018, dated 2022).

Experiments:
Pyricularia oryzae = assay: microbe, parasite or virus in culture; assay type: cell-based; settings: 168 h, read-out: control compared to the untreated check
Phakopsora pachyrhizi = Phakopsora pachyrhizi test in soybean, preventive spray; assay type: in vivo; settings: preventive spray on soybean plants, inoculated one day after treatment, greenhouse 25° C., 90% relative humidity, read-out: control (efficacy, disease severity rating) compared to the untreated check
Experimental: Example 8: Phakopsora pachyrhizi Test in Soybean
Compounds were dissolved in 2% DMSO/Acetone & then mixed with water to the calibrated spray volume of 50 mL and poured into the spray bottles for further applications.
To test the preventive activity of compounds, healthy young soybean plants raised in the greenhouse were sprayed with active compound preparation at the stated application rates inside the spray cabinets using hallowcone nozzles. One day after treatment, the plants were inoculated with spore suspension containing 2.1×10^6 Phakopsora pachyrhizi inoculum. The inoculated plants were then kept in greenhouse chamber at 25° C. temperature & 90% relative humidity for disease expression.
A visual assessment of compound's performance was carried out by rating the disease severity (0-100% scale) on treated plants on 3, 7, 10 & 15 days after application. Efficacy (% control) of the compounds was calculated by comparing the disease rating in the treatment with the one of the untreated control. The sprayed plants were also assessed for compound's plant compatibility by recording symptoms like necrosis, chlorosis & stunting.

Alternaria solani = Alternaria solani (early blight of tomato/potato) radial mycelial growth on Potato Dextrose Agar; assay type: cell-based; settings: 168 h, Potato Dextrose Agar, 25° C., 60% relative humidity, seven days, read-out: control compared to the untreated check
Experimental: Example 4: Alternaria solani (Early Blight of Tomato/Potato)
Compounds were dissolved in 0.3% DMSO & then added to Potato Dextrose Agar medium just prior to dispensing it into petri dishes. 5 mL medium with compound in the desired concentration was dispensed into 60 mm sterile petri-plates. After solidification each plate was seeded with 5 mm size mycelial disc taken form periphery of actively growing virulent culture plate. Plates were incubated in growth chambers at 25° C. temperature and 60% relative humidity for seven days and radial growth was measured.

| Compound | inhibition of growth at 300 ppm (Pyricularia oryzae) [%] | pest or weed control at 500 ppm (Phakopsora pachyrhizi) [%] | inhibition of growth at 300 ppm (Alternaria solani) [%] |
| --- | --- | --- | --- |
| CS(=O)(=NC(=O)c1ccc(-c2noc(C(F)(F)F)n2)cc1)c1ccccc1F (centres unmarked) [Compound 3, N-((2-fluorophenyl)(methyl)(oxo)-λ^6-sulfanylidene)-4-(5-(trifluoromethyl)-1,2,4-oxadiazol-3-yl)benzamide] | > 70 | > 90 |  |
| CS(=O)(=Nc1ccc(-c2noc(C(F)(F)F)n2)cc1)c1ccc(C(F)(F)F)cc1 (centres unmarked) [Compound 19, methyl((4-(5-(trifluoromethyl)-1,2,4-oxadiazol-3-yl)phenyl)imino)(4-(trifluoromethyl)phenyl)-λ^6-sulfanone] | > 70 | > 90 |  |
| CS(=O)(=NCc1ccc(-c2noc(C(F)(F)F)n2)cc1)c1ccccn1 (centres unmarked) [Compound 27, methyl(pyridin-2-yl)((4-(5-(trifluoromethyl)-1,2,4-oxadiazol-3-yl)benzyl)imino)-λ^6-sulfanone] | > 70 | > 90 |  |
| CS(=O)(Cc1cccc(F)c1F)=NC(=O)c1ccc(-c2noc(C(F)(F)F)n2)cc1 (centres unmarked) [Compound 33, N-((2,3-difluorobenzyl)(methyl)(oxo)-λ^6-sulfaneylidene)-4-(5-(trifluoromethyl)-1,2,4-oxadiazol-3-yl)benzamide] |  |  | > 70 |
| CS(=O)(=NC(=O)c1ccc(-c2noc(C(F)(F)F)n2)cc1)c1ccc(F)cc1F (centres unmarked) [Compound 47, N-((2,4-difluorophenyl)(methyl)(oxo)-λ^6-sulfaneylidene)-4-(5-(trifluoromethyl)-1,2,4-oxadiazol-3-yl)benzamide] |  | > 90 | > 70 |
| CS(=O)(Cc1ccccn1)=NC(=O)c1ccc(-c2noc(C(F)(F)F)n2)cc1 (centres unmarked) [Compound 52, N-(methyl(oxo)(pyridin-2-ylmethyl)-λ^6-sulfaneylidene)-4-(5-(trifluoromethyl)-1,2,4-oxadiazol-3-yl)benzamide] |  | > 90 | > 70 |
| COc1ccc(S(C)(=O)=NC(=O)c2ccc(-c3noc(C(F)(F)F)n3)cc2)c(OC)c1 (centres unmarked) [Compound 56, N-((2,4-dimethoxyphenyl)(methyl)(oxo)-λ^6-sulfaneylidene)-4-(5-(trifluoromethyl)-1,2,4-oxadiazol-3-yl)benzamide] |  | > 90 | > 70 |
| CS(=O)(Cc1ccncc1)=NC(=O)c1ccc(-c2noc(C(F)(F)F)n2)cc1 (centres unmarked) [Compound 59, N-(mehtyl(oxo)(pyridin-4-ylmethyl)-λ^6-sulfaneylidene)-4-(5-(trifluoromethyl)-1,2,4-oxadiazol-3-yl)benzamide] |  | > 90 | > 70 |
| CS(=O)(Cc1cc(F)ccc1F)=NC(=O)c1ccc(-c2noc(C(F)(F)F)n2)cc1 (centres unmarked) [Compound 62, N-((2,5-difluorobenzyl)(methyl)(oxo)-λ^6-sulfaneylidene)-4-(5-(trifluoromethyl)-1,2,4-oxadiazol-3-yl)benzamide] |  | > 90 | > 70 |
| COc1ccc(S(C)(=O)=NC(=O)c2cccc(-c3noc(C(F)(F)F)n3)c2)cc1 (centres unmarked) [Compound 71, N-((4-methoxyphenyl)(methyl)(oxo)-λ^6-sulfaneylidene)-3-(5-(trifluoromethyl)-1,2,4-oxadiazol-3-yl)benzamide] |  | > 90 | > 70 |
| CS(=O)(=NC(=O)c1cccc(-c2noc(C(F)(F)F)n2)c1)c1nccs1 (centres unmarked) [Compound 73, N-(methyl(oxo)(thiazol-2-yl)-λ^6-sulfaneylidene)-3-(5-(trifluoromethyl)-1,2,4-oxadiazol-3-yl)benzamide] |  |  | > 70 |
| CS(=O)(Cc1ccc(C#N)cc1)=NC(=O)c1cccc(-c2noc(C(F)(F)F)n2)c1 (centres unmarked) [Compound 75, N-((4-cyanobenzyl)(methyl)(oxo)-λ^6-sulfaneylidene)-3-(5-(trifluoromethyl)-1,2,4-oxadiazol-3-yl)benzamide] |  | > 90 | > 70 |
| CS(=O)(Cc1ccccc1F)=Nc1ccc(-c2noc(C(F)(F)F)n2)cc1 (centres unmarked) [Compound 94, (2-fluorobenzyl)(methyl)((4-(5-(trifluoromethyl)-1,2,4-oxadiazol-3-yl)phenyl)imino)-λ^6-sulfanone] |  |  | > 70 |
| CS(=O)(Cc1ccc(Cl)c(F)c1)=Nc1ccc(-c2noc(C(F)(F)F)n2)cc1 (centres unmarked) [Compound 99, (4-chloro-3-florobenzyl)(methyl)((4-(5-(trifluoromethyl)-1,2,4-oxadiazol-3-yl)phenyl)imino)-λ^6-sulfanone] |  | > 90 | > 70 |
| Cc1csc(S(C)(=O)=Nc2ccc(-c3noc(C(F)(F)F)n3)cc2)n1 (centres unmarked) [Compound 117, methyl(4-methylthiazol-2-yl)((4-(5-(trifluoromethyl)-1,2,4-oxadiazol-3-yl)phenyl)imino)-λ^6-sulfanone] | > 70 |  | > 70 |
| Cc1ccc(S(C)(=O)=NCc2ccc(-c3noc(C(F)(F)F)n3)cc2)cc1 (centres unmarked) [Compound 137, methyl(p-tolyl)((4-(5-(trifluoromethyl)-1,2,4-oxadiazol-3-yl)benzyl)imino)-λ^6-sulfanone] | > 70 |  | > 70 |
| CS(=O)(=NCc1cccc(-c2noc(C(F)(F)F)n2)c1)c1ccccc1F (centres unmarked) [Compound 148, (2-fluorophenyl)(methyl)((3-(5-(trifluoromethyl)-1,2,4-oxadiazol-3-yl)benzyl)imino)-λ^6-sulfanone] | > 70 |  | > 70 |
| CC(C)S(=O)(=NCc1ccc(-c2noc(C(F)(F)F)n2)cc1)c1ccc(Cl)cc1 (centres unmarked) [Compound 152, (4-chlorophenyl)(isopropyl)((4-(5-(trifluoromethyl)-1,2,4-oxadiazol-3-yl)benzyl)imino)-λ^6-sulfanone] | > 70 |  |  |
| COc1cccc(S(=O)(=O)NC(=O)c2ccc(-c3noc(C(F)(F)F)n3)cc2)c1 [Compound 158, N-((3-methoxyphenyl)sulfonyl)-4-(5-(trifluoromethyl)-1,2,4-oxadiazol-3-yl)benzamide] |  |  | > 70 |
| O=C(NS(=O)(=O)c1ccc(Br)cc1)c1ccc(-c2noc(C(F)(F)F)n2)cc1 [Compound 162, N-((4-bromophenyl)sulfonyl)-4-(5-(trifluoromethyl)-1,2,4-oxadiazol-3-yl)benzamide] |  |  | > 70 |
| O=C(NS(=O)(=O)c1c(Cl)cccc1Cl)c1ccc(-c2noc(C(F)(F)F)n2)cc1 [Compound 163, N-((2,6-dichlorophenyl)sulfonyl)-4-(5-(trifiuoromethyl)-1,2,4-oxadiazol-3-yl)benzamide] |  |  | > 70 |
| CS(=O)(=Nc1ccc(-c2noc(C(F)(F)F)n2)cc1F)c1ccccc1F (centres unmarked) [Compound 165, ((2-fluoro-4-(5-(trifluoromethyl)-1,2,4-oxadiazol-3-yl)phenyl)imino)(2-fluorophenyl)(methyl)-λ^6-sulfanone] | > 70 |  |  |
| CS(=O)(=Nc1ccc(-c2noc(C(F)(F)F)n2)cc1F)c1ccccc1 (centres unmarked) [Compound 166, ((2-fluoro-4-(5-(trifluoromethyl)-1,2,4-oxadiazol-3-yl)phenyl)imino)(methyl)(phenyl)-λ^6-sulfanone] | > 70 |  |  |
| CS(=O)(=Nc1ccc(-c2noc(C(F)(F)F)n2)cc1F)c1ccc(Cl)cc1 (centres unmarked) [Compound 167, (4-chlorophenyl)((2-fluoro-4-(5-(trifluoromethyl)-1,2,4-oxadiazol-3-yl)phenyl)imino)(methyl)-λ^6-sulfanone] | > 70 |  |  |
| CS(=O)(=Nc1ccc(-c2noc(C(F)(F)F)n2)cc1F)c1cccc(F)c1 (centres unmarked) [Compound 169, ((2-fluoro-4-(5-(trifluoromethyl)-1,2,4-oxadiazol-3-yl)phenyl)imino)(3-fluorophenyl)(methyl)-λ^6-sulfanone] | > 70 |  |  |
| COc1ccc(S(C)(=O)=Nc2ccc(-c3noc(C(F)(F)F)n3)cc2F)cc1 (centres unmarked) [Compound 171, ((2-fluoro-4-(5-(trifluoromethyl)-1,2,4-oxadiazol-3-yl)phenyl)imino)(4-methoxyphenyl)(methyl)-λ^6-sulfanone] | > 70 |  |  |
| CS(=O)(=NCc1cccc(Cl)c1)c1ccc(-c2noc(C(F)(F)F)n2)cc1 (centres unmarked) [Compound 182, ((3-chlorobenzyl)imino)(methyl)(4-(5-(trifluoromethyl)-1,2,4-oxadiazol-3-yl)phenyl)-λ^6-sulfanone] | > 70 |  |  |
| CS(=O)(=NCc1ccc(F)cc1)c1ccc(-c2noc(C(F)(F)F)n2)cc1 (centres unmarked) [Compound 183] | > 70 |  |  |
| CS(=O)(=NCc1ccc(F)cc1F)c1ccc(-c2noc(C(F)(F)F)n2)cc1 (centres unmarked) [Compound 184, ((2,4-difluorobenzyl)imino)(methyl)(4-(5-(trifluoromethyl)-1,2,4-oxadiazol-3-yl)phenyl)-λ^6-sulfanone] | > 70 |  |  |
| CS(=O)(=NCc1cccc(F)c1)c1ccc(-c2noc(C(F)(F)F)n2)cc1 (centres unmarked) [Compound 185, ((3-fluorobenzyl)imino)(methyl)(4-(5-(trifluoromethyl)-1,2,4-oxadiazol-3-yl)phenyl)-λ^6-sulfanone] | > 70 |  |  |
